Assays:
A2780 cells = test: Cell Proliferation Assay (Cell Titer Glo), A2780; type: cell-based; settings: Homo sapiens, 72 h; A2780 cells, 3 days incubation; read-out: CPEC50 A2780
How it was run: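 Following a 3-day compound exposure (37° C., 5% CO2) of A2780 or PC3MM cells plated at 1000 per well, viability was measured by Cell Titer Glo luminescence in fresh medium, read 10 min after reagent addition.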

PDK1 kinase = biological target: T1, PDK1 kinase (Homo sapiens, UniProt O15530); test: PDK1 Kinase Alpha Screen Assay; type: biochemical; settings: read-out: PDK1 IC50
T1 sequence (O15530 1-556): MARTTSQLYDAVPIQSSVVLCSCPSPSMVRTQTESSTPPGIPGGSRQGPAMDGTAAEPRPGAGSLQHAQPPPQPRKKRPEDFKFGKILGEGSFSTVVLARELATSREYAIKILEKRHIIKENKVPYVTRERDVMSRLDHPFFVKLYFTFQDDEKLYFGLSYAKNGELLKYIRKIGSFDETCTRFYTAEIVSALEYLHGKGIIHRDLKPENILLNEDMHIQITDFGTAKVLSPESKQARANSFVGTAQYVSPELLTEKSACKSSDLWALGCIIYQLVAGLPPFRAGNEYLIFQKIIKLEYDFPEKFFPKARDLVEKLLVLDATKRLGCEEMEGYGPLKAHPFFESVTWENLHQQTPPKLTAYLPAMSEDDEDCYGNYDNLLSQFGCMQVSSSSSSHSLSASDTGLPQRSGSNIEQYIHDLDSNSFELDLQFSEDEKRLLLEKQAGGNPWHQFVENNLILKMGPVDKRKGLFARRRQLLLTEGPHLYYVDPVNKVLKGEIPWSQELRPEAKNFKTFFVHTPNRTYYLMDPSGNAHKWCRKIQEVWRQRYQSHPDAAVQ
How it was run: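 PDK1, 10 uM ATP, 50 nM biotin-PDK1-4 peptide; 50 mM Tris pH 7.5, 10 mM MgCl2, 0.1% BSA, 0.01% Tween-20, 2 mM DTT, 2.5% DMSO; 3-18 h. EDTA stop; AlphaScreen, phospho-Ser/Thr antibody, overnight RT.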

PC-3 cells = test: Cell Proliferation Assay (Cell Titer Glo), PC-3 cell line; type: cell-based; settings: Homo sapiens, PC-3, 72 h, PC-3 cells, 3 days incubation; read-out: CP EC50 PC3
How it was run: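 Cell Titer Glo luminescence, read after fresh medium replaced the dosing medium, gave viability of PC-3 cells plated at 1000 cells/well. Compounds, 1:3 serially diluted in DMSO at 500× and then in medium, were added after 3-5 h adhesion and incubated 3 days at 37° C.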

[1] = system: pAkt308 (phosphorylation of Akt at T308) in PC-3 cells; test: pAkt T308 ECL Assay in PC-3 cells; type: cell-based; settings: Homo sapiens, 6 h, six hours with compound, read-out: PAKT308 PC3 IC50
Method: VI. The pAkt^T308 ECL Assay Protocol
On Day 1, PC-3 cells were seeded at 15,000 cells/well in 100 μL/well ([…]) growth media into black-walled, clear bottom, poly-L-lysine coated plates. The cells were incubated overnight in a 37° C., 5% CO2 incubator.
On Day 2, a MSD ECL plate was blocked for two hours with 150 μL per well of 3% MSD blocker A.
Test compounds were diluted to 500× in DMSO and then were subjected to further serial dilution using a BioMek 2000 instrument. DMSO diluted compounds were then diluted into growth media and then added to the cell plates.
The cell plates incubated with compounds for six hours in a 37° C., 5% CO2 incubator after which the growth medium was removed and 55 μl of MSD lysis buffer was added to cell plates on ice. The plates were lysed on ice for five minutes followed by 15 minutes of vigorous shaking on a plate shaker at 4° C. The blocked MSD assay plates were washed twice with 1×MSD wash buffer followed by the addition of cell lysate as follows: 30 μl of cell lysate was added to the pAkt308 plates and 13 μl of lysate+12 μl lysis buffer was added to the tAkt plates. The plates were then sealed and shaken at 4° C. overnight.
On Day 3, the MSD plates were washed four times with 1×MSD wash buffer then, 25 μl/well of MSD SULFO-TAG antibodies diluted to 10 nM final concentration in 1% blocker. A buffer was added to the antibody diluent which was added to assay plates. The plates were then sealed and incubated at RT for 1.5 hour. The plates were then washed twice with 1×MSD wash buffer followed by the addition of 150 μl/well of 1.5×MSD read buffer. The plates were read immediately after the addition of read buffer using a Trilux instrument. […]

SMILES	EC50 (A2780 cells)	IC50 (PDK1 kinase)	EC50 (PC-3 cells)	IC50 [1]
NS(=O)(=O)c1ccc(Nc2ncc3cc(Br)cc(OC4CCNCC4)c3n2)cc1 [Compound 1, 4-[6-Bromo-8-(piperidin-4-yloxy)-quinazolin-2-ylamino]-benzenesulfonamide]	< 5 µM	< 5 µM	< 5 µM	5 to 10 µM
NS(=O)(=O)c1ccc(Nc2ncc3cc(Br)cc(OC4CN5CCC4CC5)c3n2)cc1 (stereo not shown) [Compound 2, 4-[8-(1-Aza-bicyclo[2.2.2]oct-3-yloxy)-6-bromo-quinazolin-2-yl-amino]-benzenesulfonamide]	< 5 µM	< 5 µM	< 5 µM	< 5 µM
O=S(=O)(c1cccc(Nc2ncc3cccc(OC4CCNCC4)c3n2)c1)N1CCOCC1 [Compound 5, [3-(Morpholine-4-sulfonyl)-phenyl]-[8-(piperidin-4-yloxy)-quinazolin-2-yl]-amine]	< 5 µM	< 5 µM		5 to 10 µM
NS(=O)(=O)c1ccc(Nc2ncc3ccc(-c4cccnc4)c(OC4CCNCC4)c3n2)cc1 [Compound 18, 4-[8-(Piperidin-4-yl-oxy)-7-pyridin-3-yl-quinazolin-2-ylamino]-benzenesulfonamide]	< 5 µM	< 5 µM		5 to 10 µM
Nc1ccc(-c2ccc3cnc(Nc4ccc(S(N)(=O)=O)cc4)nc3c2OC2CCNCC2)cn1 [Compound 21, 4-[7-(6-Amino-pyridin-3-yl)-8-(piperidin-4-yloxy)-quinazolin-2-ylamino]-benzenesulfonamide]	< 5 µM	< 5 µM		5 to 10 µM
COc1cncc(-c2ccc3cnc(Nc4ccc(S(N)(=O)=O)cc4)nc3c2OC2CCNCC2)c1 [Compound 23, 4-[7-(5-Methoxy-pyridin-3-yl)-8-(piperidin-4-yloxy)-quinazolin-2-ylamino]-benzenesulfonamlde]	< 5 µM	< 5 µM		5 to 10 µM
NS(=O)(=O)c1ccc(Nc2ncc3ccc(-c4cn[nH]c4)c(OC4CCNCC4)c3n2)cc1 [Compound 24, 4-[8-(Piperidin-4-yloxy)-7-(1H-pyrazol-4-yl)-quinazolin-2-ylamino]-benzenesulfonamide]	< 5 µM	< 5 µM		5 to 10 µM
Cn1cc(-c2ccc3cnc(Nc4ccc(S(N)(=O)=O)cc4)nc3c2OC2CCNCC2)cn1 [Compound 25, 4-[7-(1-Methyl-1H-pyrazol-4-yl)-8-(piperidin-4-yloxy)-quinazolin-2-ylamino]-benzenesulfonamide]	< 5 µM	< 5 µM		5 to 10 µM
NS(=O)(=O)c1ccc(Nc2ncc3ccc(-c4ncco4)c(OC4CCNCC4)c3n2)cc1 [Compound 26, 4-[7-Oxazol-2-yl-8-(piperidin-4-yloxy)-quinazolin-2-ylamino]-benzenesulfonamide]	< 5 µM	< 5 µM		5 to 10 µM
NS(=O)(=O)c1ccc(Nc2ncc3ccc(-c4nccs4)c(OC4CCNCC4)c3n2)cc1 [Compound 27, 4-[8-(Piperidin-4-yloxy)-7-thiazol-2-yl-quinazolin-2-ylamino]-benzenesulfonamide]	< 5 µM	< 5 µM		< 5 µM
NS(=O)(=O)c1ccc(Nc2ncc3ccc(-c4ccccn4)c(OC4CCNCC4)c3n2)cc1 [Compound 28, 4-[8-(Piperidin-4-yloxy)-7-pyridin-2-yl-quinazolin-2-ylamino]-benzenesulfonamide]	< 5 µM	< 5 µM		5 to 10 µM
CNC(=O)c1ccc(Nc2ncc3cccc(OC4CCN(C(C)C)CC4)c3n2)cc1 [Compound 43, 4-[8-(1-Isopropyl-piperidin-4-yloxy)-quinazolin-2-ylamino]-N-methyl-benzamide]	< 5 µM	< 5 µM		< 5 µM
CC(C)Cn1cc(-c2ccc3cnc(Nc4ccc(S(N)(=O)=O)cc4)nc3c2OC2CCNCC2)cn1 [Compound 65]	< 5 µM	< 5 µM		5 to 10 µM
NS(=O)(=O)c1ccc(Nc2ncc3ccc(-c4cnccn4)c(OC4CCNCC4)c3n2)cc1 [Compound 66, 4-[8-(Piperidin-4-yloxy)-7-pyrazin-2-yl-quinazolin-2-ylamino]-benzenesulfonamide]	< 5 µM	< 5 µM		5 to 10 µM
NS(=O)(=O)c1ccc(Nc2ncc3ccc(-c4cccnc4)cc3n2)cc1 [Compound 133, 4-(7-Pyridin-3-yl-quinazolin-2-ylamino)-benzenesulfonamide]	< 5 µM	< 5 µM		< 5 µM
COc1cncc(-c2ccc3cnc(Nc4ccc(S(N)(=O)=O)cc4)nc3c2)c1 [Compound 138, 4-[7-(5-Methoxy-pyridin-3-yl)-quinazolin-2-ylamino]-benzenesulfonamide]	< 5 µM	< 5 µM		5 to 10 µM

The next lines start with the values.

EC50 (A2780 cells)	IC50 (PDK1 kinase)	EC50 (PC-3 cells)	IC50 [1]	SMILES
< 5 µM	< 5 µM	< 5 µM	< 5 µM	O=S(=O)(c1ccc(Nc2ncc3cccc(OC4CCNCC4)c3n2)cc1)N1CCOCC1 [Compound 3, [4-(Morpholine-4-sulfonyl)-phenyl]-[8-(piperidin-4-yloxy)-quinazolin-2-yl]-amine]
< 5 µM	< 5 µM	< 5 µM	< 5 µM	CC(C)N1CCC(Oc2cccc3cnc(Nc4ccc(S(=O)(=O)N5CCOCC5)cc4)nc23)CC1 [Compound 4, [8-(1-Isopropyl-piperidin-4-yloxy)-quinazolin-2-yl]-[4-(morpholine-4-sulfonyl)-phenyl]-amine]
< 5 µM	< 5 µM	< 5 µM	< 5 µM	CC(C)NS(=O)(=O)c1ccc(Nc2ncc3cccc(OC4CCNCC4)c3n2)cc1 [Compound 11, N-Isopropyl-4-[8-(piperidin-4-yloxy)-quinazolin-2-ylamino]-benzenesulfonamide]
< 5 µM	< 5 µM	< 5 µM	< 5 µM	COCCNS(=O)(=O)c1ccc(Nc2ncc3cccc(OC4CCNCC4)c3n2)cc1 [Compound 12, N-(2-Methoxy-ethyl)-4-[8-(piperidin-4-yloxy)-quinazolin-2-ylamino]-benzenesulfonamide]
< 5 µM	< 5 µM	< 5 µM	< 5 µM	O=S(=O)(NC1CC1)c1ccc(Nc2ncc3cccc(OC4CCNCC4)c3n2)cc1 [Compound 13, N-Cyclopropyl-4-[8-(piperidin-4-yloxy)-quinazolin-2-ylamino]-benzenesulfonamide]
< 5 µM	< 5 µM		< 5 µM	CN1CCC(Oc2cccc3cnc(Nc4ccc(S(N)(=O)=O)cc4)nc23)CC1 [Compound 35, 4-[8-(1-Methyl-piperidin-4-yloxy)-quinazolin-2-ylamino]-benzenesulfonamide]
< 5 µM	< 5 µM		5 to 10 µM	NS(=O)(=O)c1ccc(Nc2ncc3cccc(O[C@@H]4CCNC4)c3n2)cc1 [Compound 37, 4-[8-((R)-Pyrrolidin-3-yloxy)-quinazolin-2-ylamino]-benzenesulfonamide]
< 5 µM	< 5 µM		5 to 10 µM	CCN1CCC(Oc2cccc3cnc(Nc4ccc(S(N)(=O)=O)cc4)nc23)CC1 [Compound 46, 4-[8-(1-Ethyl-piperidin-4-yloxy)-quinazolin-2-ylamino]-benzenesulfonamide]
